Assay results as given in publication PMC5738391, “Three classes of ligands each bind to distinct sites on the orphan G protein-coupled receptor GPR84” (Scientific Reports, 2017).

Assays:
[1] = target: GPR84-Cys^352Ile Gαi2 fusion protein (Homo sapiens, UniProt Q9NQS5); experiment: [35S]GTPγS binding, membranes expressing pertussis toxin-resistant GPR84-Cys352Ile Gαi2 fusion; operational model of allosteric modulation; format: biochemical
Experimental: The only previous study[3] designed to explore the mode of binding of ligands to GPR84 employed a fusion protein[31],[32] in which the G protein Gαi1 was linked in-frame to the C-terminal tail of GPR84.
(§1) Membranes were generated from Flp-In T-REx HEK293 cells treated with 100 ng/mL doxycycline to induce expression of the receptor construct of interest. Cells were washed with ice-cold phosphate-buffered saline, removed from dishes by scraping and centrifuged at 3000 rpm for 5 min at 4 °C. Pellets were resuspended in TE buffer (10 mM Tris-HCl, 0.1 mM EDTA; pH 7.5) containing a protease inhibitor mixture (Roche Applied Science, West Sussex, UK) and homogenized with a 5 ml hand-held homogenizer. This material was centrifuged at 1500 rpm for 5 min at 4 °C and the supernatant was further centrifuged at 50000 rpm for 45 min at 4 °C. The resulting pellet was resuspended in TE buffer and protein content was assessed using a BCA protein assay kit (Pierce, Fisher Scientific, Loughborough, UK).
The reaction was then initiated with addition of [^35S]GTPγS (50 nCi per tube), and the reaction was terminated after 45 minutes incubation at 30 °C by rapid filtration through GF/C glass filters using a 24-well Brandel cell harvester (Alpha Biotech, Glasgow, UK). […] Dried filters were added to 3 mL of Ultima Gold^TM XR (PerkinElmer Life Sciences, Beaconsfield, UK) and [^35S]GTPγS binding was determined by liquid scintillation spectrometry.
To quantify the extent of allosteric interaction between pairs of ligands, data were analysed using an operational model of allosteric modulation described previously. The general version of this model can be depicted by the following equation: E=Em(τA[A](KB+αβ[B])+τB[B]KA)^n/([A]KB+KAKB+[B]KA+α[A][B])^n+(τA[A](KB+αβ[B])+τB[B]KA)^n where, E is the pharmacological effect, [A] and [B] are the orthosteric and allosteric compound concentrations at equilibrium, respectively; KA and KB are the equilibrium dissociation constants of the orthosteric and allosteric ligands respectively, denoting the binding affinities of the two ligands to the receptor; α is the binding cooperativity factor denoting the magnitude and direction of the allosteric effect on binding affinity of the orthosteric agonist to the receptor, β is the activation cooperativity factor representing the measure of the allosteric effect on orthosteric efficacy. τA and τB represent the intrinsic activity of the orthosteric and allosteric ligand, respectively. Em is the maximal possible system response and n denotes the slope factor of the transducer function. In case of global fitting of the allosterism data through this equation, Em and n values were always constrained and other parameters (KA, KB,τA, τB, α, β) were estimated.

[2] = design: method as in PMID 17164373; conditions: cited from earlier work
[3] = system: GPR84-Gαi2 fusion protein; experiment: [35S]GTPγS binding, membranes expressing GPR84-Gαi2 fusion protein; format: biochemical, human; conditions: wild type GPR84-Gαi2 fusion, pertussis toxin 24 h
Text: The only previous study[3] designed to explore the mode of binding of ligands to GPR84 employed a fusion protein[31],[32] in which the G protein Gαi1 was linked in-frame to the C-terminal tail of GPR84. […] These studies indicate that following pertussis toxin treatment of cells expressing the GPR84-Cys^352Ile Gαi2 fusion protein all agonist-induced binding of [^35S]GTPγS reflects incorporation of nucleotide into the receptor-linked G protein α subunit.
as §1
Initially, 5 μg of generated membrane protein was pre-incubated for 15 min at 25 °C in assay buffer (20 mM HEPES, 5 mM MgCl2; 160 mM NaCl; 1 μM GDP; 0.05% fatty acid-free bovine serum albumin; pH 7.5) containing the indicated ligand concentrations. […] The reaction was then initiated with addition of [^35S]GTPγS (50 nCi per tube), and the reaction was terminated after 45 minutes incubation at 30 °C by rapid filtration through GF/C glass filters using a 24-well Brandel cell harvester (Alpha Biotech, Glasgow, UK). Unbound radioligand was removed from filters by three washes with ice-cold phosphate buffered saline (pH 7.4) and filters were dried for 2–3 h at room temperature. Dried filters were added to 3 mL of Ultima Gold^TM XR (PerkinElmer Life Sciences, Beaconsfield, UK) and [^35S]GTPγS binding was determined by liquid scintillation spectrometry.

[4] = target: T1, human GPR84 (FLAG-hGPR84-eYFP) (Homo sapiens, UniProt Q9NQS5); experiment: HTRF-based cAMP inhibition assay in Flp-In T-REx 293 cells expressing FLAG-hGPR84-eYFP; format: cell-based; conditions: 100 μM of each MCFA
T1 construct: expressed in transfected cells
T1 sequence (Q9NQS5 whole entry): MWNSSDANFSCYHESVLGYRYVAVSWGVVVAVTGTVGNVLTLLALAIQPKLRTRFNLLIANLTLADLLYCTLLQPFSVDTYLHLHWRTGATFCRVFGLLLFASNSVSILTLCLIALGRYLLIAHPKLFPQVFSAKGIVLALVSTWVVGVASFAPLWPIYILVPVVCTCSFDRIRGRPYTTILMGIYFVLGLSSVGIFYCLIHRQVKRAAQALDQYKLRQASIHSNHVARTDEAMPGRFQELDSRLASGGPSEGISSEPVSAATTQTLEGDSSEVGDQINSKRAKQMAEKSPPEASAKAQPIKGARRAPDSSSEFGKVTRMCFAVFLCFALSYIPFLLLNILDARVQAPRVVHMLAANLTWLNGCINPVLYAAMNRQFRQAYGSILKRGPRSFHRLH
Experimental: For the assay cells were plated at 5000 cells/well in low-volume 384-well plates. The ability of agonists to inhibit 1 μM forskolin-induced cAMP production was assessed following a co-incubation for 30 min with agonist compounds.

[5] = agonist DIM, modulator compound-1
[6] = oral dosing to women of up to 1000 mg of indole-3-carbinol

GPR84-Cys^352Ile Gαi2 fusion protein, sequence (Q9NQS5 whole entry, the tested form may be a part): as the sequence (Q9NQS5 whole entry) above
GPR84-Cys^352Ile Gαi2 fusion protein, sequence (P04899 2-355 C352I, further chain): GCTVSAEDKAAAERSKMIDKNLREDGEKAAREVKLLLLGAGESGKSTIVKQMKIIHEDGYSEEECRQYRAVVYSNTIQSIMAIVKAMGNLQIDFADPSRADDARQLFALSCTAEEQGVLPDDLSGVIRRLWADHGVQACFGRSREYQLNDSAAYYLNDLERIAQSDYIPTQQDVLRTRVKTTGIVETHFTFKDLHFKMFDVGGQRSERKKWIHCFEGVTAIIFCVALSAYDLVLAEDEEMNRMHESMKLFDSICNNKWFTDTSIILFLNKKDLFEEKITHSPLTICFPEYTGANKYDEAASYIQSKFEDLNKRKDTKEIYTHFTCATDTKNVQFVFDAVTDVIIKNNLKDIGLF

SMILES	increase in potency of DIM to activate GPR84 at high levels of C10 or other MCFAs versus absence of C10 [1]	logα ([1]; agonist DIM, modulator C-10)	logβ ([1]; agonist DIM, modulator C-10)	logα [1, 5]	logβ [1, 5]	logα ([1]; agonist DIM, modulator embelin)	logβ ([1]; agonist DIM, modulator embelin)	allosteric effect on potency of C10 ([1]; co-addition of increasing concentrations of DIM, pertussis toxin-treated cells)	effect on measured potency of compound-1 and embelin ([1]; increasing concentrations of DIM)	response after pertussis toxin treatment ([1]; pertussis toxin-resistant fusion, pertussis toxin 24 h)	clearance from plasma ([2]; after oral indole-3-carbinol)	peak plasma level of DIM [2, 6]	time to peak plasma level of DIM [2, 6]	response after pertussis toxin pre-treatment [3]	co-addition with compound-1 or embelin, effect on potency [1]	logα ([1]; agonist C-10, modulator DIM)	logβ ([1]; agonist C-10, modulator DIM)	capacity to inhibit forskolin-amplified levels of cAMP, compared among MCFAs of chain length C9-C14 [4]
c1ccc2c(Cc3c[nH]c4ccccc34)c[nH]c2c1 [DIM, 3,-3′-diindolylmethane]	~20 fold	1.3 ± 0.1	1.2 ± 0.05	1.8 ± 0.08	1.14 ± 0.03	1.12 ± 0.04	1.0 ± 0.03	positive allosteric modulator	enhancing the measured potency	unaffected	rapidly cleared	500–600 ng/ml and approximately 2 μM	≤ 2 h	all but eliminated	–	–	–	–
CCCCCCCCCC(=O)O [C10, decanoic acid]	–	–	–	–	–	–	–	–	–	–	–	–	–	–	did not result in modulation of the potency	1.4 ± 0.1	0.4 ± 0.07	produced the largest effect
